Series [1] deals with Plasmodium falciparum. The series can be described thus: NOVARTIS: Inhibition of Plasmodium falciparum W2 (drug-resistant) proliferation in erythrocyte-based infection assay. The settings on record: Plasmodium falciparum, W2; read-out: EC50. In kind it is functional, organism-based.
In series [2] the test system is Plasmodium falciparum. The experiment in a line: NOVARTIS: Inhibition of Plasmodium falciparum 3D7 (drug-susceptible) proliferation in erythrocyte-based infection assay. In kind it is functional, organism-based. The following applies: Plasmodium falciparum, 3D7.
Series [3] can be described thus: NOVARTIS: Cytotoxicity against human hepatocellular carcinoma cell line (Huh7). In kind it is toxicity, cell-based, Huh-7. The settings on record: Huh7 cells (hepatocellular carcinoma cell line).

A value given as a limit tells only on which side of the number the result lay.

For `CC=C[C@H]1O[C@@](O)([C@@H](C)C(O)C(C)[C@H]2OC(=O)C(OC)=CC(C)=C[C@@H](C)[C@H](O)C(CC)[C@@H](O)[C@H](C)CC(C)=CC=C[C@@H]2OC)C[C@@H](O[C@H]2C[C@@H](O)[C@H](OC(N)=O)[C@@H](C)O2)[C@@H]1C` (some centres not stated), the EC50 is above 1250 nM with Plasmodium falciparum [1] and 1180 nM in the series on Plasmodium falciparum [2]. In series [3], this compound registered a CC50 above 10 µM.
For `CC(=O)Nc1cccc(NC(=O)C(F)(F)F)c1` the same measures were above 1250 nM, 1180 nM and above 10 µM.
For `CSc1nnc(CN2CCSCC2)n1C` the same measures were above 1250 nM, 2030 nM and above 10 µM.
For `COc1ccccc1/C=C/CN(CCN1CCN(S(=O)(=O)c2cccc(C(F)(F)F)c2)CC1)C(=O)Cc1ccccc1` the same measures were above 1250 nM, 1320 nM and above 10 µM.
On to `Cc1ccccc1N1C(=O)N(c2ccccc2)C2CS(=O)(=O)CC21` (configuration not stated), for which the values for the EC50 in the series with Plasmodium falciparum [1] and in the series on Plasmodium falciparum [2] were above 1250 nM and 1920 nM, respectively. The same compound came in with a CC50 in series [3] above 10 µM.
For the compound `CCOc1ccccc1NC(=O)C1C(c2ccccc2)=C1c1ccccc1`, the EC50 was above 1250 nM with Plasmodium falciparum [1] and 1800 nM with Plasmodium falciparum [2]. Moreover, the CC50 in series [3] is above 10 µM.
For `C=CCNC(=S)N1CCN(c2ccc([N+](=O)[O-])cc2)CC1` the same measures were above 1250 nM, 2370 nM and above 10 µM.
`Cc1cc(N2CCCCC2)nc2ccc(NC(=O)c3cncc(Br)c3)cc12`: the results for the EC50 in the series on Plasmodium falciparum [1] and in the series with Plasmodium falciparum [2] were above 1250 nM and 1360 nM, respectively. Besides, the CC50 in series [3] was above 10 µM.
For `c1ccc(Oc2ccc(Nc3nc4nonc4nc3Nc3ccc(Oc4ccccc4)cc3)cc2)cc1` the same measures were above 1250 nM, 1760 nM and above 10 µM.
For `c1cncc(CCNc2nccn3c(-c4cccc5ccccc45)cnc23)c1` the same measures were above 1250 nM, 1240 nM and above 10 µM.
For `CN(C)CCCNc1ncc(C(=O)NCCc2ccccc2)c(NCC2CCCCC2)n1` the same measures were above 1250 nM, 1240 nM and above 10 µM.
With `O=C1/C(=C/c2ccccc2)Oc2c1ccc(O)c2CN1CCCCC1`, the figures for the EC50 in the series on Plasmodium falciparum [1] and in the series on Plasmodium falciparum [2] were 1260 nM and above 1250 nM, respectively. Further, in series [3], the CC50 is above 10 µM.
For `CCCCN1C=CC=C/C1=C\c1sc2ccccc2[n+]1CC` the same measures were 226 nM, 120 nM and 1.8 µM.
For `Cc1cc(C)c2nc(NS(=O)(=O)c3cccc(C(=O)O)c3)sc2c1` the same measures were 1250 nM, 693 nM and above 10 µM.
For `CCOC(=O)c1sc(=S)n(-c2ccc(N(C)C)cc2)c1N` the same measures were above 1270 nM, above 1190 nM and above 10 µM.
For the compound `CC(C(=O)NN=C1CCN(C)CC1)N(c1ccccc1)S(C)(=O)=O` (configuration not stated), the EC50 was 1270 nM with Plasmodium falciparum [1] and above 1250 nM in the series with Plasmodium falciparum [2]. In series [3], this compound gave a CC50 above 10 µM.
For `Cc1c(C(=O)N2CCN(c3ccc([N+](=O)[O-])cc3)CC2)sc2ncnc(N(C)c3ccccc3)c12` the same measures were above 1250 nM, 1650 nM and above 10 µM.
For `O=C1Cc2c([nH]c3ccc(OCc4ccccc4)cc23)C2CC=CCC12` (configuration not stated) the same measures were above 1250 nM, 1590 nM and above 10 µM.
For `C=CCOC(=O)C1=C(C)N2CCSC2=C(C#N)C1c1ccco1` (configuration not stated) the same measures were above 1250 nM, 1210 nM and above 10 µM.
`O=C(Nc1ccc2c3c(cccc13)CC2)c1cccc2ccccc12`: the values for the EC50 in the series with Plasmodium falciparum [1] and in the series on Plasmodium falciparum [2] were above 1250 nM and above 1200 nM, respectively. The compound further yielded a CC50 in series [3] above 10 µM.
For `COc1cc(C(=O)/C=C/Nc2ccc(N(C)C)cc2)cc(OC)c1OC` the same measures were above 1250 nM, above 1200 nM and above 10 µM.
For `COc1ccc(-n2cc(-c3ccc(C)cc3)nc2SCC(=O)Nc2ccc(C)cc2)cc1` the same measures were above 1250 nM, 2230 nM and above 10 µM.
For `CCOC(=O)C(=O)N1c2ccc(C)cc2C(C)(c2ccccc2)CC1(C)C` (configuration not stated) the same measures were above 1250 nM, 2130 nM and above 10 µM.
With `CCOC(=O)c1c(NC(=O)CSc2nc3c(c(=O)n(C)c(=O)n3C)n2C(C)C)sc2c1CCCC2`, the results for the EC50 in the series with Plasmodium falciparum [1] and in the series on Plasmodium falciparum [2] were above 1250 nM and 1560 nM, respectively. Besides, the CC50 in series [3] was above 10 µM.
For `CCN1/C(=C/c2cccc[n+]2C)Sc2cc(NC(C)=O)ccc21` the same measures were above 1250 nM, 1400 nM and above 10 µM.
For `COc1ccc(C2NCCc3c2[nH]c2ccccc32)cc1CSc1nc2ccccc2[nH]1` (configuration not stated) the same measures were 2590 nM, 1750 nM and 20.4 µM.
For `Clc1ccc2[nH]c3c(NCCC4=CCCCC4)ncnc3c2c1` the same measures were 2000 nM, 988 nM and 15.8 µM.
Consider `CCN1/C(=C\C=C\C2=[N+](C)c3ccccc3C2(C)C)N(c2ccccc2)c2ccccc21`, for which the figures for the EC50 in the series with Plasmodium falciparum [1] and in the series on Plasmodium falciparum [2] were 1260 nM and 1400 nM, respectively. The CC50 in series [3] was above 10 µM.
For `CCOc1ccccc1C=NNc1nc(Nc2ccccc2)nc(Nc2ccccc2)n1` the same measures were above 1250 nM, 2050 nM and above 10 µM.
For `CCOc1ccc(-n2cc(-c3ccccc3)c3c(SCc4cc(C)ccc4C)ncnc32)cc1` the same measures were above 1250 nM, 2010 nM and above 10 µM.
Turning to `COc1ccc(S(=O)(=O)NCC2CCC(C(=O)NCC(OC)OC)CC2)cc1` (configuration not stated), the EC50 with Plasmodium falciparum [1] is above 1250 nM; with Plasmodium falciparum [2] it was above 1180 nM. This compound displayed a CC50 in series [3] above 10 µM.
For `COc1ccc(CN2CC(=O)N(c3ccc(Cl)cc3)C2=S)cc1OC` the same measures were above 1250 nM, above 1180 nM and above 10 µM.
For `CN(C)c1ccc(C=NNc2nc(N)nc(N)n2)cc1` the same measures were above 1250 nM, 2000 nM and above 10 µM.
For `O=C(C1CC=CCC1)N1CCCC(c2ncncc2-c2ccncc2)C1` (configuration not stated) the same measures were above 1250 nM, 1370 nM and above 10 µM.
For `CCC(c1nc2ccccc2c(=O)n1CC)N1CCN(C(=O)Nc2ccccc2C(F)(F)F)CC1` (configuration not stated), the EC50 in the series on Plasmodium falciparum [1] was above 1250 nM; in the series with Plasmodium falciparum [2], 1300 nM. The CC50 in series [3] is above 10 µM.
As to `O=C(NC(CN1CCCC1)c1ccccc1)C1CCCCN1S(=O)(=O)c1ccccc1` (configuration not stated), the EC50 in the series on Plasmodium falciparum [1] was 1260 nM; with Plasmodium falciparum [2], 632 nM. This compound also came in with a CC50 in series [3] above 10 µM.
For `N#CC(c1ccc(C(F)(F)F)cc1)c1ccc2c(C(F)(F)F)cc(C(F)(F)F)nc2n1` (configuration not stated) the same measures were 316 nM, 413 nM and 2.51 µM.
As for `Oc1ccc(-c2cncc(NCc3ccccc3)n2)cc1`, the EC50 in the series with Plasmodium falciparum [1] was above 1250 nM; in the series on Plasmodium falciparum [2] it was 1750 nM. Moreover, in series [3], the CC50 was above 10 µM.
Consider `Cc1ccc2nc(-c3ccc(NC(=O)c4ccc(S(=O)(=O)N5CC(C)CC(C)C5)cc4)cc3)sc2c1` (configuration not stated), for which the EC50 is above 1250 nM in the series on Plasmodium falciparum [1] and 1320 nM in the series on Plasmodium falciparum [2]. Also, in series [3], the CC50 was above 10 µM.
For `COc1ccc(CCNC(=O)c2cc(S(=O)(=O)N3CC(C)CC(C)C3)ccc2Sc2ccc(F)cc2)cc1OC` (configuration not stated) the same measures were 1260 nM, 1050 nM and above 10 µM.
Regarding `CC(=NOC(=O)c1ccco1)c1cnccn1`, the figures for the EC50 with Plasmodium falciparum [1] and in the series with Plasmodium falciparum [2] were above 1250 nM and 1250 nM, respectively. For the same compound, the CC50 in series [3] is above 10 µM.
For `CC1CC(C)CN(S(=O)(=O)c2ccc(C(=O)Nc3ccc(-c4nc5ccccc5o4)cc3)cc2)C1` (configuration not stated) the same measures were above 1250 nM, 1200 nM and above 10 µM.
For `Cc1nc(Oc2ccc3ccc(=O)oc3c2)c2c3c(sc2n1)CCCCC3` the same measures were above 1250 nM, 2300 nM and above 10 µM.
For `COc1ccc(-n2nc(C(=O)NCC(=O)NCCCN3CCOCC3)c3ccccc3c2=O)cc1Cl` the same measures were above 1250 nM, 1260 nM and above 10 µM.
As for `COC(=O)c1c(S(=O)(=O)N2CCN(C)CC2)sc2c1CCN(CCCc1ccccc1)C2`, the EC50 with Plasmodium falciparum [1] was 1260 nM; in the series with Plasmodium falciparum [2], 1420 nM. Moreover, the CC50 in series [3] is above 10 µM.
For `COc1ccc(Cl)cc1-n1c(-c2cccnc2)n[nH]c1=S` the same measures were above 1250 nM, 1870 nM and above 10 µM.
For `COCCNCc1cc2cc3c(cc2n(Cc2cccc(F)c2)c1=O)OCO3` the same measures were 1270 nM, above 1250 nM and above 10 µM.
For `CCC(C)N(CCC(=O)N1CCN(Cc2ccccc2)CC1)C(=O)Nc1cccc(Cl)c1Cl` (configuration not stated) the same measures were above 1060 nM, above 1560 nM and above 8.39 µM.
For the compound `O=C1c2ccccc2-c2nc3ccc(C(F)(F)F)cc3nc21`, the EC50 in the series on Plasmodium falciparum [1] is 1260 nM; in the series on Plasmodium falciparum [2] it was 1140 nM. The CC50 in series [3] is above 10 µM.
For `O=C(COc1ccccc1)Nc1nccs1` the same measures were 1260 nM, above 1250 nM and above 10 µM.
For `C/C(Cl)=C/Cc1c(C)nc2c(ccc3ccccc32)c1O` the same measures were 1280 nM, 857 nM and above 10 µM.
For `CC(NC(=O)Cc1ccc(F)cc1)C(c1cccs1)N1CCOCC1` (configuration not stated) the same measures were above 1250 nM, 2010 nM and above 10 µM.
Consider `CCOc1ccc(Nc2nc(N3CCCCC3)nc(N3CCCCC3)n2)cc1`, for which the EC50 in the series on Plasmodium falciparum [1] is above 1250 nM; with Plasmodium falciparum [2] it was 1190 nM. In series [3], the CC50 was above 10 µM.
For the compound `CC1(C)CN=C(N2CCN(CC(O)COc3ccc(OCC(O)CN4CCN(C5=NCC(C)(C)S5)CC4)cc3)CC2)S1` (configuration not stated), the EC50 in the series on Plasmodium falciparum [1] was above 1250 nM; in the series on Plasmodium falciparum [2] it was 2420 nM. Further, the CC50 in series [3] is above 10 µM.

For orientation: EC50 means the concentration at which the effect is half-maximal. For orientation: CC50 means the concentration at which the toxic effect on the cells reaches its halfway point. Low readings indicate greater toxicity to the cells, high ones lower toxicity to the cells.

Values taken from ChEMBL document CHEMBL1156829 (Proc Natl Acad Sci U S A, 2008).
